{"source": "patent EP4541885A1", "about": "“OPTIMIZED PHLOROGLUCINOL SYNTHASES” (priority 2023, dated 2025)", "molecules": {"B1": {"name": "Tsukamurella pulmonis phloroglucinol synthase PhlD_Tpu WT, wild type, SEQ ID NO: 1 (Tsukamurella pulmonis) (protein)", "chain": "MNTTEQQSVLPQQAWLGAPPAPPTSVAVIESLATSSPTQTYGQAESADRVAARFDDPRQAERIRRVYAKTRVTERHLAIDPLTPEFAEFSARPDTVRERMDLFFEHAAPLAIETARRALGDNAATDIGQLVFVTSTGFLAPGVDVAVIRALGLAPQTSRVVINFMGCAAAMNALRVSTDYVRAQPDRKSLMICLELSSVNAVFSGDPNDVVISSLFADGCGAAVIGASEVGHPLPSGQIVVRDTFTHLLDGAEDGIVLGVNANGITCELAESLPQYIVNGVAPVVDAVLDRNGLGREAVAHWAIHPGGPKIIESAAAALGLPDDASRLSWDVLAEHGNMLSVSLLFVLERLRAQVASDGADGAPSTGMAFSFAPGVTVEGFLFDVVTTGE"}}, "test_in_all_cases": "Kinetic parameters determination (HPLC monitoring of MLC consumed and CoA produced)", "key": {"[1]": {"molecular_target": "T1, Tsukamurella pulmonis phloroglucinol synthase PhlD_Tpu WT, wild type, SEQ ID NO: 1 (Tsukamurella pulmonis, UniProt A0A1H1FBR5)", "T1 sequence (A0A1H1FBR5 1-390)": "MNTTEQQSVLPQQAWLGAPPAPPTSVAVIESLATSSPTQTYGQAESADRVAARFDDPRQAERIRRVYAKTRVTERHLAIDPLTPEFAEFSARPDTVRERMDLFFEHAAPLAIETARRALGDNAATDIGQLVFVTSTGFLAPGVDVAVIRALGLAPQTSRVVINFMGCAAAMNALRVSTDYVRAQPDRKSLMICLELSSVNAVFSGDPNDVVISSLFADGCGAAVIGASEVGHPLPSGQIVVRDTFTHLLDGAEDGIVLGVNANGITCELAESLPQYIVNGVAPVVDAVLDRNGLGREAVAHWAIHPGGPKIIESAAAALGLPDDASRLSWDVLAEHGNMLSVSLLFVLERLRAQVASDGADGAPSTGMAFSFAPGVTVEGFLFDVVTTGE", "format": "biochemical", "conditions": "MLC 5-100 µM, sodium phosphate buffer 50 mM pH 7, 30°C, 0.5 µM pure enzyme", "experimental": "(§1) The selected PhlD_Tpu sequences are amplified from the yeast expression plasmid and fused with a 6xHis tag encoded at the C-terminus. This fusion is inserted into the pET26b(+) plasmid, between the XhoI and NdeI restriction sites (as shown in Figure 4), with the […] controlling its expression. The recombinant plasmid is used to transform E. coli BL21(DE3) competent cells, which are grown in LB medium (10 g/L NaCl, 10 g/L Tryptone, 5 g/L yeast extract) at 37° C with shaking, in a final volume of 500 mL. The expression of the recombinant plasmid is initiated by adding 0.1 mM of IPTG when the OD600nm reaches 0.4-0.5. The cells are then allowed to grow overnight at 20°C until they reach an OD600nm of approximately 1.5-1.6.\n(§2) E. coli BL21(DE3) cells transformed as described in paragraph 1.2.4 above were disrupted by Fast-Prep at a speed setting of 6 m/sec for 3 cycles of 45 sec. The supernatant is filtered on a 0.45 µm membrane before being applied to a 1 mL Talon® Resin column. The column is washed first with 10 column volumes of sodium phosphate buffer (50 mM, pH7; NaCl 100 mM) and with 10 column volumes of sodium phosphate buffer with 10 mM of imidazole ([…], Phosphate buffer 50 mM, 500 mM imidazole pH 8.5; 100mM NaCl). Protein elution is performed using 150 mM imidazole in sodium phosphate buffer (50 mM pH 7, NaCl 100mM). Collected fractions are pooled and diafiltrated using 5 volumes of sodium phosphate buffer (50 mM pH 7, NaCl 100mM) using a 30 kDa diafiltration unit (Amicon ®Ultra, Merck) before reducing the volume to 500 µL.\n(§3) The concentrate is applied on a gel filtration column (S200 TRICORN 10/300 Superdex 200). Elution is performed with an isocratic gradient of sodium phosphate buffer (50 mM pH 7, NaCl 100mM). The purity of the various fractions obtained is checked by SDS-PAGE (Mini-PROTEAN TGX Stain-Free Gels, Bio Rad)\n(§4) In order to access the kinetic parameters of PhlD_Tpu, the concentrations of MLC consumed and CoA produced were monitored by HPLC. The experiments were run for 120 sec and only the linear part of CoA variation with time was used to calculate initial velocity. The experiments were carried using a range of MLC concentrations (5-100 µM) in sodium phosphate buffer (50 mM pH 7), at 30°C, and with 0.5 µM of pure enzyme. At 10, 20, 30, 50, 60 and 120 sec, 100 µL aliquots of the reaction mixture were quenched with 10 µL of 10% (v/v) formic acid and kept at room temperature before HPLC analysis. With these conditions, the CoA production increased linearly with time until 50 sec. Table 7: HPLC conditions for MLC and CoA separation and quantification."}, "[2]": {"tested_on": "Tsukamurella pulmonis phloroglucinol synthase PhlD_Tpu variant M27 (A124P, A154P, S177A, S236P, E268Q, E271R, A298D), SEQ ID NO: 3", "format": "biochemical", "experimental": "as §1, §2, §3, §4"}, "[3]": {"tested_on": "CC(C)(COP(=O)(O)OP(=O)(O)OC[C@H]1O[C@@H](n2cnc3c(N)ncnc32)[C@H](O)[C@@H]1OP(=O)(O)O)[C@@H](O)C(=O)NCCC(=O)NCCSC(=O)CC(=O)O", "format": "biochemical, Tsukamurella pulmonis", "conditions": "other: MLC 5-100 µM, sodium phosphate buffer 50 mM pH 7, 30°C, 0.5 µM pure enzyme", "experimental": "as §1, §2, §3, §4"}, "[4]": {"substrate": "CC(C)(COP(=O)(O)OP(=O)(O)OC[C@H]1O[C@@H](n2cnc3c(N)ncnc32)[C@H](O)[C@@H]1OP(=O)(O)O)[C@@H](O)C(=O)NCCC(=O)NCCSC(=O)CC(=O)O", "format": "biochemical, Tsukamurella pulmonis", "conditions": "other: MLC 5-100 µM, sodium phosphate buffer 50 mM pH 7, 30°C, 0.5 µM pure enzyme", "experimental": "as §1\nE. coli BL21(DE3) cells transformed as described in paragraph 1.2.4 above were disrupted by Fast-Prep at a speed setting of 6 m/sec for 3 cycles of 45 sec. The supernatant is filtered on a 0.45 µm membrane before being applied to a 1 mL Talon® Resin column. […]\nIn order to access the kinetic parameters of PhlD_Tpu, the concentrations of MLC consumed and CoA produced were monitored by HPLC. […] Table 7: HPLC conditions for MLC and CoA separation and quantification.", "remark": "listed apart in the source"}}}
{"molecule": "CC(C)(COP(=O)(O)OP(=O)(O)OC[C@H]1O[C@@H](n2cnc3c(N)ncnc32)[C@H](O)[C@@H]1OP(=O)(O)O)[C@@H](O)C(=O)NCCC(=O)NCCSC(=O)CC(=O)O", "note": "[malonyl-CoA]", "values": [{"measurement": "kcat", "setting": "[1]", "value": 0.38, "unit": "s⁻¹"}, {"measurement": "kcat reduced by a factor (M27 vs PhlD_Tpu WT)", "setting": "[2]; factor of reduction relative to PhlD_Tpu WT", "value": 1.3}, {"measurement": "KM relative to PhlD_Tpu WT", "setting": "[2]; relative to PhlD_Tpu WT", "value": "twice lower"}, {"measurement": "catalytic efficiency, times higher compared to PhlD_Tpu WT", "setting": "[2]; relative to PhlD_Tpu WT", "value": 1.6}]}
{"molecule": "Tsukamurella pulmonis phloroglucinol synthase PhlD_Tpu variant M27 (A124P, A154P, S177A, S236P, E268Q, E271R, A298D), SEQ ID NO: 3 (Tsukamurella pulmonis; A124P/A154P/A298D/E268Q/E271R/S177A/S236P)", "values": [{"measurement": "Km", "setting": "[3]", "value": "4.9 ± 0.544", "unit": "µM"}, {"measurement": "kcat", "setting": "[3]", "value": "0.28 ± 0.06", "unit": "s⁻¹"}, {"measurement": "kcat/Km", "setting": "[3]", "value": 57000, "unit": "M⁻¹ s⁻¹"}]}
{"molecule": "B1", "values": [{"measurement": "Km", "setting": "[4]", "value": 10.52, "unit": "µM"}]}
